Assay results from patent US20060287319A1, “Anti-viral compositions comprising heterocyclic substituted phenyl furans and related compounds” (priority 2005, published 2006).
Read-outs that look alike come from different tables or passages of the source.

Assays:
[1] = target: gp41 six-helix bundle formation between N36 and C34 (Human immunodeficiency virus type 1 group M subtype B, UniProt P04578); conditions: read-out: IC50 for inhibition of six-helix bundle formation between N36 and C34; sandwich ELISA, FIG. 3
Experimental: ELISA for screening for compounds that inhibit the gp41 six-helix bundle formation. A sandwich ELISA as previously described (27) was used to screen for compounds that inhibit the gp41 six-helix bundle formation. Briefly, peptide N36 (2 μM) was pre-incubated with a test compound at the indicated concentrations at 37° C. for 30 min, followed by addition of C34 (2 μM). In the control experiments, N36 was pre-incubated with C34 at 37° C. for 30 min, followed by addition of the test compound. After incubation at 37° C. for 30 min, the mixture was added to wells of a 96-well polystyrene plate (Costar, Corning Inc., Corning, N.Y.) which were precoated with IgG (2 μg/ml) purified from rabbit antisera directed against the N36/C34 mixture. […] Absorbance at 450 nm was measured using an ELISA reader (Ultra 384, Tecan, Research Triangle Park, N.C.). […] Chou (Sloan-Kettering Cancer Center, New York, N.Y.).
A model system of the gp41 six-helix bundle was established by mixing the N— and C-peptides at equal molar concentrations (16).

HIV-1 IIIB = conditions: for EC50: read-out: EC50 (μM) (M ± SD) for inhibition of p24, MT-2 cells; for SI (CC50/EC50): selectivity index
Experimental: Assessment of anti-HIV-1 infectivity. The inhibitory activity of compounds on infection by laboratory-adapted HIV-1 strains was determined as previously described (34). […] For the time-of-addition assay, compounds were added at various time post-infection. Then the culture supernatants were removed and fresh media were added. On the fourth day post-infection, 100 μl of culture supernatants were collected from each well, mixed with equal volumes of 5% Triton X-100 and assayed for p24 antigen, which was quantitated by ELISA (23). Briefly, the wells of polystyrene plates (Immulon 1B, Dynex Technology, Chantilly, Va.) were coated with HIV immunoglobulin (HIVIG), which was prepared from plasma of HIV-seropositive donors with high neutralizing titers against HIV-1IIIB as previously described (36) in 0.085 M carbonate-bicarbonate buffer (pH 9.6) at 4° C. overnight, followed by washes with PBS-T buffer (0.01M PBS containing 0.05% Tween-20) and blocking with PBS containing 1% dry fat-free milk (Bio-Rad Inc., Hercules, Calif.). Virus lysates were added to the wells and incubated at 37° C. for 1 h. […] Reactions were terminated by addition of 1N H2SO4. […] Recombinant protein p24 (US Biological, Swampscott, Mass.) was included for establishing standard dose response curve.

[2] = read-out: IC50 (μM) (Mean ± SD), HIV-1 strain IIIB

Chain of gp41 six-helix bundle formation between N36 and C34 (P04578 546-581): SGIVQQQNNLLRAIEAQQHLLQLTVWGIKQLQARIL

CCN1C(=O)/C(=C/c2ccc(-c3cccc(C(=O)O)c3)o2)SC1=S [NB179]
IC50 [1]: 2510 ± 270 nM
EC50 (HIV-1 IIIB; HIV-1 IIIB): 0.501 ± 0.039 µM
IC50 (HIV-1 IIIB; [2]): 0.501 ± 0.039 µM
SI (CC50/EC50) (HIV-1 IIIB): >1230.77

O=C(O)c1cc(-c2ccc(/C=C3\SC(=S)N(CCc4ccccc4)C3=O)o2)ccc1Cl [NB206]
IC50 [1]: 830 ± 30 nM
EC50 (HIV-1 IIIB; HIV-1 IIIB): 0.019 ± 0.002 µM
IC50 (HIV-1 IIIB; read-out: IC50 inhibiting HIV-1 replication, HIV-1 IIIB): 0.019 µM
SI (CC50/EC50) (HIV-1 IIIB): 981.11

O=C(O)c1cccc(-c2ccc(/C=C3\SC(=S)N(c4ccc(Cl)cc4Cl)C3=O)o2)c1 [NB231]
IC50 [1]: 930 ± 330 nM
EC50 (HIV-1 IIIB; HIV-1 IIIB): 0.189 ± 0.042 µM
IC50 (HIV-1 IIIB; [2]): 0.189 ± 0.042 µM
SI (CC50/EC50) (HIV-1 IIIB): 656.56
